We go through ten compounds from ChEMBL document CHEMBL1201862, “PubChem BioAssay data set” (2004).

What is called IC50 is the concentration that gives 50% inhibition. As a reminder, the EC50 is the midpoint of the concentration-response curve. By AC50 is commonly meant the concentration giving half of the maximal activity seen.

Calls of active or inactive are those of the source.

In assay [1] the target is Protein Tat (Human immunodeficiency virus type 1 group M subtype B (isolate HXB2)(HIV-1), UniProt P04608). The format is functional.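 Note: tat binding to TAR RNA read out by fluorescence polarization.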
Sequence of Protein Tat (P04608 whole entry): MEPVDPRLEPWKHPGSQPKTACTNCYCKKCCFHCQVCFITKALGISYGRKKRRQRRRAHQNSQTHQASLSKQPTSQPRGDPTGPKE
Assay [2] is described as follows: Luminescence Cell-Based Dose Confirmation HTS to Identify Inhibitors of Platelet Dense Granule Release. [Related pubchem assays: 1663 (Primary HTS), 1678 (Summary of Project)]. The format is functional.
Assay [3] can be described thus: Fluorescence Cell-Based Dose Response to Identify Inhibitors of Thrombin Receptor-Activating Peptide SFLLRN-Mediated P-Selectin Induction on Platelets. [Related pubchem assays: 1663 (Primary HTS), 1889 (retest at dose ), 1891 (counterscreen), 1678 (Project Summary)]. It counts as functional. On the technique in general: Counterscreens check selectivity or assay interference.

Assay [4] addresses Luciferin 4-monooxygenase (Photinus pyralis, UniProt P08659). Description: firefly luciferase enzyme inhibitors, dose response, biochemical, luminescence (AID 1891).
The nature of assay [5]: HCT116 cell viability decrease, GSK3B pretreatment – CellTiter-Glo, IC50, dose response (AID 1117339). It counts as functional. As to conditions: HCT-116. (In general: ATP-based viability assays read luminescence as a measure of living cells.)
Assay [6] is described as follows: Concentration-dependent survival of SW480 colon cancer line, luminescence detection with CellTiter-Glo, half-maximal inhibitory concentration (AID 1117338). It counts as functional.
Assay [7] can be described thus: cytotoxicity toward HT-29 cells – cell-based, CellTiter-Glo luminescence, IC50, dose response (AID 1117330). The format is functional.
Assay [8] can be described thus: SNU-C1 cell viability reduction, dose response, CellTiter-Glo luminescence (AID 1117323). It counts as functional, cell-based.
A short description of assay [9]: cytotoxicity toward Colo320 cells – cell-based, CellTiter-Glo luminescence, IC50, dose response (AID 1117334). The format is functional. The settings on record: COLO 320.
Assay [10] can be described thus: RKO cell viability reduction, dose response, CellTiter-Glo luminescence (AID 1117322). It counts as functional.
Assay [11] in a line: CellTiter-Glo luminescent dose response of DLD-1 viability loss (AID 1117352). It counts as functional.
Assay [12] is described as follows: cytotoxicity toward HCT116 cells – cell-based, CellTiter-Glo luminescence, IC50, dose response (AID 1117332). The format is functional. The settings on record: HCT-116.
Assay [13] can be described thus: Plasmodium falciparum Dd2 Sybr green parasite growth Measured in Cell-Based and Microorganism Combination System Using Plate Reader - 2153-01_Inhibitor_Dose_DryPowder_Activity_Set3. It counts as functional.
Assay [14] can be described thus: P. falciparum Dd2 growth inhibitors, dose response, SYBR Green, dry powder samples (AID 1159566).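 Note: potency for growth inhibition with lower SYBR green DNA signal.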 It counts as functional, cell-based.
Assay [15] is described as follows: P. falciparum ATP4 D1247Y mutant growth inhibitors, dose response, NITD609-resistant line, SYBR Green, dry powder (AID 1159571).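 Note: parasites synchronized at ring stage by sorbitol before testing.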 It counts as functional, cell-based.
Assay [16] can be described thus: P. falciparum 3D7-ScDHODH growth inhibitors, dose response, SYBR Green, dry powder samples (AID 1159570).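 Note: parasite growth measured after 72 hours of compound exposure.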 It counts as functional, cell-based.
The nature of assay [17]: P. falciparum Dd2 growth inhibitors, dose response, SYBR Green, cherry-picked samples (AID 1159567). The format is functional, cell-based.
Assay [18] concerns the target T1, SUMO-activating enzyme (Homo sapiens, UniProt Q9UBT2). Description: SUMOylation inhibitor hit validation, confirmation, SUMOylation inhibitor project, biochemical, AlphaScreen (AID 2018). The format is functional. A general note: Bead proximity is the source of the signal in Alpha formats.
The target in assay [19] is T1, SUMO-activating enzyme. Put plainly: inhibitors of in vitro SUMOylation cascade, primary screen, biochemical, HTRF, uHTS (AID 2006). The format is protein-complex assay.
Assay [20] has as its target Genome polyprotein (Hepatitis C virus, UniProt Q2Q167). Put plainly: HCV core protein dimerization inhibitors, dose response, biochemical, TR-FRET (AID 2159).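 Note: blocks dimerization of HCV core protein measured by TR-FRET between tagged core106 pairs.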 Also noted: species or system Hepacivirus hominis.
Assay [21] has as its target Photoreceptor-specific nuclear receptor (Homo sapiens, UniProt Q9Y5X4). Description: NR2E3 inverse agonists, dose response, biochemical, TR-FRET (AID 463256). It counts as functional.
Assay [22] addresses Peroxisome proliferator-activated receptor gamma/Nuclear receptor corepressor 2 (Homo sapiens, UniProt P37231+Q9Y618). Put plainly: Counterscreen for NR2E3 inverse agonists: TR-FRET-based biochemical high throughput dose response assay to identify inverse agonists of the interaction between peroxisome proliferator-activated receptor gamma (PPARg) and nuclear receptor co-repressor 2 (NCOR2). The format is functional.

In assay [23] the target is 5-hydroxytryptamine receptor 1A (Homo sapiens, UniProt P08908). It counts as functional.
For assay [24], the target named is Disintegrin and metalloproteinase domain-containing protein 17 (Homo sapiens, UniProt P78536). Put plainly: exosite inhibitors of ADAM17, dose response, biochemical (AID 743260).
Assay [25] has as its target Mitogen-activated protein kinase 10 (Homo sapiens, UniProt P53779). Put plainly: Dose response biochemical screening assay for inhibitors of c-Jun N-Terminal Kinase 3 (JNK3). [Related pubchem assays: 746 ].
A short description of assay [26]: ADAM10 protease inhibitors, dose response, selectivity assay for ADAM17 exosite inhibitor project, biochemical, FRET peptide substrate, recombinant human ADAM10 (AID 743259).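 Note: ADAM10 enzyme cleaving a FRET peptide substrate.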
Assay [27] deals with NADPH oxidase 1 (Homo sapiens, UniProt Q9Y5S8). Put plainly: Late-stage luminescence-based cell-based dose response assay to identify inhibitors of NADPH oxidase 1 (NOX1): Synthesized analogs 2. The format is functional.
The nature of assay [28]: inhibitors of Vif binding to APOBEC3G peptide, primary screen, biochemical, TR-FRET, GST-Vif 1-94, biotin-A3G peptide, dose response retest (AID 1117319).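 Note: TR-FRET signal of purified GST-Vif binding a biotinylated A3G peptide; inhibitors lower the FRET signal by blocking Vif and A3G binding.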 The format is functional.

T1 sequence (Q9UBE0 whole entry): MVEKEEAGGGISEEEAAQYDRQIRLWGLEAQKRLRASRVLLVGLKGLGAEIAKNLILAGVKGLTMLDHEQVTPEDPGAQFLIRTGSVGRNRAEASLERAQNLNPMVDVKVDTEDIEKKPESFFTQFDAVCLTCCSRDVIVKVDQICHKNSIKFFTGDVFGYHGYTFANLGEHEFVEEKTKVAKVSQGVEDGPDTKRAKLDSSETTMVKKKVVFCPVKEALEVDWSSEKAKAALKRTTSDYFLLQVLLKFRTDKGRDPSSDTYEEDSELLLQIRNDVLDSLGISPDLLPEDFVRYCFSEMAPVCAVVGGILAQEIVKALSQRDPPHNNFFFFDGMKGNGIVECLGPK
T1 sequence (Q9UBT2 whole entry): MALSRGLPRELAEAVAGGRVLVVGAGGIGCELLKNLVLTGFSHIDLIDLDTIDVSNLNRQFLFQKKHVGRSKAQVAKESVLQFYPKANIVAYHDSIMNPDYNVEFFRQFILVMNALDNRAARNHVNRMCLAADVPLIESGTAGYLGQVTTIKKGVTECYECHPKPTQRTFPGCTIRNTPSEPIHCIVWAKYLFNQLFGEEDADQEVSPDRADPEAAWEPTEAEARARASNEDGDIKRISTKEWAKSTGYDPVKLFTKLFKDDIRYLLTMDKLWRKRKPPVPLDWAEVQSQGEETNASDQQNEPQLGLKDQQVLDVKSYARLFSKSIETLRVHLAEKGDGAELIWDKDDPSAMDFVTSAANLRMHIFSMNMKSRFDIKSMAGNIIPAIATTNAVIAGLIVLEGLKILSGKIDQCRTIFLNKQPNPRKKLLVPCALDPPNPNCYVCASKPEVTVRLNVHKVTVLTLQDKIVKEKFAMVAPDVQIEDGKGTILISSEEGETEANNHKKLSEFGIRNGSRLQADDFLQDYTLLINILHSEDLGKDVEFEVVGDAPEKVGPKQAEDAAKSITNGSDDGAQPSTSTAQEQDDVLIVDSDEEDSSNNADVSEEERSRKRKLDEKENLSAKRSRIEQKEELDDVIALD
Sequence of Genome polyprotein (Q2Q167 whole entry): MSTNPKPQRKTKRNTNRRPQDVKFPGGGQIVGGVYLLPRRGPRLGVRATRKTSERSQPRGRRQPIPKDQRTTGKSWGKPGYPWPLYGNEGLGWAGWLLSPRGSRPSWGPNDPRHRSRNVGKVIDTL
Sequence of Luciferin 4-monooxygenase (P08659 whole entry): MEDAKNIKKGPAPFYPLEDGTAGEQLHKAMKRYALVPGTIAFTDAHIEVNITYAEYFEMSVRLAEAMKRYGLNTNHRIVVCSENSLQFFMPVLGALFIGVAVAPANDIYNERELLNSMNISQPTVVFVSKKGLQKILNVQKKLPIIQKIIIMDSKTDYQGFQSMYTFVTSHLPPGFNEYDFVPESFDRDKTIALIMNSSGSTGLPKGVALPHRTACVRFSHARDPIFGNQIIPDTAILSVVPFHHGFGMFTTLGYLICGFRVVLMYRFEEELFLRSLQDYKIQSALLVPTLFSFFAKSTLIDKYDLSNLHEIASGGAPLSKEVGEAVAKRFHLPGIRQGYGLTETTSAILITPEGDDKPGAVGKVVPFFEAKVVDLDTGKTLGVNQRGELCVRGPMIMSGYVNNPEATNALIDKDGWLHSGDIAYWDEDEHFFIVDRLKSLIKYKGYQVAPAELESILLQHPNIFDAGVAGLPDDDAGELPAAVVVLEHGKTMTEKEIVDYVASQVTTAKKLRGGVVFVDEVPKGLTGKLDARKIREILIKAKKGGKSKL
Sequence of Peroxisome proliferator-activated receptor gamma/Nuclear receptor corepressor 2 (P37231 whole entry): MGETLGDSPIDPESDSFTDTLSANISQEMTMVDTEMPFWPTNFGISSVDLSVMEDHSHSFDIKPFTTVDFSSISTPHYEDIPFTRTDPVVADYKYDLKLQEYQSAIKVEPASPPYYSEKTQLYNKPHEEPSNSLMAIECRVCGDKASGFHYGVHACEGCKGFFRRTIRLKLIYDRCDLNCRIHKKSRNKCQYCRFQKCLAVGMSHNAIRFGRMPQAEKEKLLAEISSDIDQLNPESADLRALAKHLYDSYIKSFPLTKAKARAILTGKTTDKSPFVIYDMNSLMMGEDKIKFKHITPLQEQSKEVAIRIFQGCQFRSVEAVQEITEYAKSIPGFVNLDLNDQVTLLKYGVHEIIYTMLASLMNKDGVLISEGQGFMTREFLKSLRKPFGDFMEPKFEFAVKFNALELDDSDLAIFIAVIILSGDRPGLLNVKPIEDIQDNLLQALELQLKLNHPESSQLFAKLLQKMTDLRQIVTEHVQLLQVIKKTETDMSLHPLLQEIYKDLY
Sequence of Peroxisome proliferator-activated receptor gamma/Nuclear receptor corepressor 2 (Q9Y618 whole entry): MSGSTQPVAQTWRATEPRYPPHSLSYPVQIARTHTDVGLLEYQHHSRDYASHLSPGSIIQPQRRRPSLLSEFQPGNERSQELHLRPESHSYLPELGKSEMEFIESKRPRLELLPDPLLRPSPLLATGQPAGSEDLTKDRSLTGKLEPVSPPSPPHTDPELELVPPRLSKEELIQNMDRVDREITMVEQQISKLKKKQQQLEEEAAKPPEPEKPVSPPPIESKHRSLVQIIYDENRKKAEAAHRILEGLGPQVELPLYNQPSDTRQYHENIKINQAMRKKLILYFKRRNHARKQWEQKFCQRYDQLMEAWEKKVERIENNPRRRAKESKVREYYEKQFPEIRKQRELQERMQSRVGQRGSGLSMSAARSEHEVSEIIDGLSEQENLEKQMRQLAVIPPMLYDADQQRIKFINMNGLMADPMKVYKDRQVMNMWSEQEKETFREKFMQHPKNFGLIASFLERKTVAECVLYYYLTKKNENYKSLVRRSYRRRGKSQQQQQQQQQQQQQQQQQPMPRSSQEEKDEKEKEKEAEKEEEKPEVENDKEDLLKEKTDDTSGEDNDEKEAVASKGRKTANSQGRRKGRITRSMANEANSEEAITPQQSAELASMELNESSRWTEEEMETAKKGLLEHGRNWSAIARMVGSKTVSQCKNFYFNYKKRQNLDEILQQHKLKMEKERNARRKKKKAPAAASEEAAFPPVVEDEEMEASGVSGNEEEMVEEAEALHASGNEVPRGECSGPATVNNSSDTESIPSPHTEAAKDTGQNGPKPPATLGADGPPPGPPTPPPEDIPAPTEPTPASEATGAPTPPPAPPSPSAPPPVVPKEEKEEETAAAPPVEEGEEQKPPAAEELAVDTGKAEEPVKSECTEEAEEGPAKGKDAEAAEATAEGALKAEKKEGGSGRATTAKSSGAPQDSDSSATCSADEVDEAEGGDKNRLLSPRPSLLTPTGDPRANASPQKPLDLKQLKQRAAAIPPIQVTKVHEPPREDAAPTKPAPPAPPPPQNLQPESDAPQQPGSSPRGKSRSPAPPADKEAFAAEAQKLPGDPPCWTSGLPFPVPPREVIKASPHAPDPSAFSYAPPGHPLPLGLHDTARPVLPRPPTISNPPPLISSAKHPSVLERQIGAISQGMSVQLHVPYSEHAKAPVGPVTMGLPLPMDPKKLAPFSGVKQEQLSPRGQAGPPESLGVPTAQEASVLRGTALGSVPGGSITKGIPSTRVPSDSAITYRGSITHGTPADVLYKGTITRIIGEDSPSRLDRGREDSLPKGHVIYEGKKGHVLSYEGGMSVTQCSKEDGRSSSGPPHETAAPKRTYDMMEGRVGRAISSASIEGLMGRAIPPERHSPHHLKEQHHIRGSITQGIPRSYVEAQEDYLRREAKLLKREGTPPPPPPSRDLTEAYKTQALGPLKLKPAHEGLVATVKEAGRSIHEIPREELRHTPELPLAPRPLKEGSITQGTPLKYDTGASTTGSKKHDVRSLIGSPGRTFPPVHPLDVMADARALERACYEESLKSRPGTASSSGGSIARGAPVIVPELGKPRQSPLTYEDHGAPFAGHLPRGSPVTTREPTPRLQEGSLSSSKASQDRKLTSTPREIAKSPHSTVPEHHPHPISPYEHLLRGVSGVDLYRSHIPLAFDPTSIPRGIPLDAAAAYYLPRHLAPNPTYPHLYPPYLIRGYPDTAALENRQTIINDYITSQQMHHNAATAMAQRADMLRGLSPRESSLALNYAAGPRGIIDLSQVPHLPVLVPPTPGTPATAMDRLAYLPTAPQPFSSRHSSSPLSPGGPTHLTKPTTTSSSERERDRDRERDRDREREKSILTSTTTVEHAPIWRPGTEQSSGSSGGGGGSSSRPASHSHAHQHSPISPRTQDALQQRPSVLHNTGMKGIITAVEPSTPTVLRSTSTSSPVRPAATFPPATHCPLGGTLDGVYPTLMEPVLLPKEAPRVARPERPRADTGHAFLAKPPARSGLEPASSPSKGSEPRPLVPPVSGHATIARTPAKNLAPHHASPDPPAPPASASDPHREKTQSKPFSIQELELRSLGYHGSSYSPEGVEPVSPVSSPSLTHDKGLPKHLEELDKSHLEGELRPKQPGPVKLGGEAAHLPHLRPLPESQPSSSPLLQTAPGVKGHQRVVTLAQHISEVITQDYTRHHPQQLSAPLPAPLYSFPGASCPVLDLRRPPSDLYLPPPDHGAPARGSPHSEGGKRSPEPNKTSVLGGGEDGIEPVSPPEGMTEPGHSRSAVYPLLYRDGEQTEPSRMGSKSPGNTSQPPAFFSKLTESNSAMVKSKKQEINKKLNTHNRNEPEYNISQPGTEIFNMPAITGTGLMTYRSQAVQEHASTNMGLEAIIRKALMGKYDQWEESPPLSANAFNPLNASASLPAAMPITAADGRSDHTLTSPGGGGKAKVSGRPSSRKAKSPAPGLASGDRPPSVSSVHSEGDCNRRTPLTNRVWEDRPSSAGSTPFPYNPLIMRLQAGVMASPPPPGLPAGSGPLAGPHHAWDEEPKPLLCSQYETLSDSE

On to `COc1ccccc1N1C(=O)CC(Nc2ccc(N3CCOCC3)cc2)C1=O` (stereo not drawn), for which the IC50 in [1] is 20.1 µM (inconclusive).
For `CCc1ccc(S(=O)(=O)N/N=C\c2ccc([N+](=O)[O-])o2)cc1`, the EC50 in assay [2] is 2.02 µM (active); in [3], < 30 µM (active); in assay [4], > 112 µM (not active).
As to `CCCCCCCC(=O)OCC(COC(=O)CCCCCCC)OC(=O)CCCCCCC` [TRICAPRILIN], the IC50 in [5], in assay [6], in assay [7], in [8], in [9] and in assay [10] was > 20 µM (inactive) in each case. For the same compound, the IC50 in [11] and in assay [12] was > 20 µM (inactive) throughout.
With `N#C[C@H]1[C@@H](c2ccc(C#CC3CCCC3)cc2)[C@@H](CO)N1S(=O)(=O)Cc1ccccc1`, the AC50 in assay [13] was 3.05 µM (active); in assay [14], 0.982 µM (active); in assay [15], 3.23 µM (active); in assay [16], 2.06 µM (active); in assay [17], 2.73 µM (active).
Turning to `COc1ccccc1/C=C/C=c1\sc2nc(=O)c(Cc3ccccc3)nn2c1=O`, the IC50 in assay [18] is 8.53 µM (active); in [19], 11.8 µM (active); in [20], > 49.8 µM (not active).
As for `Cc1cc(C)nc(NS(=O)(=O)c2ccc(NC(=O)CSc3nc[nH]n3)cc2)n1`, the IC50 in assay [21] and in [22] was > 39.8 µM (not active) each time.
`CCOC(=O)C1CCN(C(=O)Cc2c(C(=O)O)n(C)c3ccccc23)CC1`: in assay [23], the EC50 is reported as > 50 µM (not active).
`C=C(C)COc1ccc(-c2nc(N)ncc2-c2ccc(OC)cc2)c(O)c1`: the IC50 in [24] is > 69.5 µM (inactive); in [25], 29.4 µM (not active); in assay [26] it was > 69.5 µM (inactive).
Consider `CN1c2ccc(Br)cc2Sc2cc(Br)ccc21`, for which the IC50 in assay [27] is listed as > 50 µM (not active).
For the compound `Cn1cc(CN2CCN(CCO)CC2)c(-c2ccc(Oc3ccccc3)cc2)n1`, the IC50 in [28] is > 100 µM (active).
